Values of other authors, collected in patent US11224572B1, “Stable oral liquid composition of terazosin” (Novitium Pharma LLC, priority 2020, dated 2022).
Structures can show the parent of a compound that is named as a salt.

How the values were obtained:
[1] = patients treated with terazosin
[2] = system: alpha-1 adrenoceptor
[3] = system: alpha-1 adrenoceptor; details: in animals

## COc1cc2nc(N3CCN(C(=O)C4CCCO4)CC3)nc(N)c2cc1OC (racemic) [terazosin, (RS)-Piperazine, 1-(4-amino-6,7-dimethoxy-2-quinazolinyl)-4-[(tetrahydro-2-furanyl)carbonyl]-, monohydrochloride]
[1]
  patients experiencing an increase in urinary flow and improvement in symptoms of BPH: approximately 70%
[2]
  time within which blood pressure decreases following oral administration: ≤ 15 min
[3]
  effect on blood pressure: causes a decrease in blood pressure by decreasing total peripheral vascular resistance
